{"source": "patent US10238670B2", "about": "“9-aminomethyl minocycline compounds and methods of use thereof in urinary tract infection (UTI) treatment” (Paratek Pharmaceuticals, Inc., priority 2016, dated 2019)", "assay": "Phase 1b study in female adults with cystitis, plasma PK", "assay_type": "in vivo, human", "settings": "for Cmax / AUC(0-t) / Tmax / AUC(0-inf) / half-life / concentration at 5 day: plasma", "procedure": "According to the study design, a randomized (1:1:1), open-label, parallel designed Phase 1b study comparing 3 dosing regimens of Compound 1 (9-[(2,2-dimethyl-propyl amino)-methyl-minocycline) in the treatment of female adults with cystitis was conducted. About 31 female patients with uncomplicated urinary tract infection (cystitis) who met inclusion and exclusion criteria were enrolled at 2-4 U.S. treatment centers. All enrolled subjects participated in the study for approximately 5-6 weeks. Following Screening of up to 48 hrs, eligible subjects were randomly assigned to receive one of 3 dosing regimens of Compound 1 treatment as shown below. Subjects in all treatment groups were domiciled for a 5-day treatment period. Details of the study are further described below.\nSubjects were randomized (1:1:1) to one of the following treatment arms: • 1. Group 1: IV load, p.o. daily (200 mg Compound 1 IV every 24 hours (q24h) for 1 dose, followed by 300 mg p.o. q24h for a total of 5 days); • 2. Group 2: p.o. load, p.o. daily (300 mg Compound 1 p.o. every 12 hours (q12h) for 2 doses, followed by 300 mg p.o. q24h for a total of 5 days); • 3. Group 3: high p.o. load, high p.o. daily (450 mg Compound 1 p.o. q12h for 2 doses, followed by 450 mg p.o. q24h for a total of 5 days).\nBlood samples were collected and analyzed for Compound 1 concentration at the following times. Pre-dose blood PK evaluations were based on blood samples collected within 10 min of each start (e.g., t=0 h dose for Day 1, t=24 h dose for Day 2, etc.). • Day 1: Pre-dose, and 0.75, 1, 2, 3, 4, 6, 8 and 12 hours after the t=0 h dose (12 h sample before the t=12 h dose for Groups 2 and 3); • Day 2: prior to the t=24 h dose; • Day 3: prior to the t=48 h dose; • Day 4: prior to the t=72 h dose; • Day 5: Pre-dose, and 0.5, 1, 2, 3, 4, 6, 8 and 12 hours after the t=96 h dose • Day 6: at t=120 h (24 hours after the t=96 h dose on Day 5)\nFollowing the final oral doses on Day 5 the Compound 1 plasma concentration-time data for Groups 1, 2 and 3 were used to determine Cmax, Tmax, AUC24h, AUCt. Trough plasma concentrations (Ctrough) following each dose (Days 2 to 6) were also determined.\nBlood samples for PK are collected at the time points specified below. • Day 1: Predose, and 0.75, 1, 2, 3, 4, 6, 8 and 12 hours after the t=0 h dose (12 h sample before the t=12 h dose for Groups 2 and 3); • Day 2: prior to the t=24 h dose; • Day 3: prior to the t=48 h dose; • Day 4: prior to the t=72 h dose; • Day 5: Predose, and 0.5, 1, 2, 3, 4, 6, 8 and 12 hours after the t=96 h dose • Day 6: at t=120 h (24 hours after the t=96 h dose on Day 5)\nBlood was collected either by fresh venipuncture or via a cannula used solely for that purpose. The dates and times for all doses of test article and PK sample collections were recorded. For intravenously administered doses of test article, the start and stop times for each infusion were recorded. Immediately after the sample was collected, the tube was gently inverted 5 to 8 times to thoroughly mix the anticoagulant and then placed upright in a cryoblock or test tube rack surrounded by ice until centrifugation. Samples were centrifuged at 1500×g for 10 minutes at approximately 4° C. within 30 minutes of collection. The resultant plasma was divided into 2 equal aliquots, placed in individual cryovials, and immediately frozen at −20° C. or colder within 1 hour of collection. The samples were kept frozen at −20° C. or colder pending shipment to the bioanalytical laboratory.\nThe Compound 1 plasma concentration data was listed and summarized by time point and treatment group. The following PK parameters were estimated from the Compound 1 plasma concentration-time data: […]", "key": {"[1]": {"settings": "Day 1, 300 mg po (n = 10), mean"}, "[2]": {"settings": "Day 5, 300 mg po (n = 10), mean"}}, "note": "Like-named read-outs stand apart in the source and are kept apart here.", "data": [{"smiles": "CN(C)c1cc(CNCC(C)(C)C)c(O)c2c1C[C@H]1C[C@H]3[C@H](N(C)C)C(O)=C(C(N)=O)C(=O)[C@@]3(O)C(O)=C1C2=O", "note": "[Compound 1, 9-[(2,2-dimethyl-propylamino)-methyl]-minocycline]", "values": [{"measurement": "AUC0-12", "setting": "[1]", "result": 6260, "unit": "ng·h/mL"}, {"measurement": "Cmax", "setting": "[1]", "result": 880, "unit": "ng/mL"}, {"measurement": "Cmin", "setting": "Day 5, 200 mg IV, 300 mg po (n = 11), mean", "result": 290, "unit": "ng/mL"}, {"measurement": "AUC0-24", "setting": "[2]", "result": 13500, "unit": "ng·h/mL"}, {"measurement": "Cmin", "setting": "[2]", "result": 320, "unit": "ng/mL"}, {"measurement": "Cmin", "setting": "Day 5, 450 mg po (n = 10), mean", "result": 480, "unit": "ng/mL"}, {"measurement": "AUC(0-t)", "setting": "female, human, intravenous, 200 mg, Day 1, 200 mg IV, 300 mg po (n = 11), mean, read-out: AUC0-24", "result": 16000, "unit": "ng·h/mL"}, {"measurement": "Tmax", "setting": "female, human, intravenous, 200 mg, Day 1, 200 mg IV, 300 mg po (n = 11), median, read-out: tmax", "result": 0.75, "unit": "h"}, {"measurement": "Cmax", "setting": "female, human, intravenous, 200 mg, Day 1, 200 mg IV, 300 mg po (n = 11), mean, read-out: Cmax", "result": 2160, "unit": "ng/mL"}, {"measurement": "AUC(0-t)", "setting": "female, human, intravenous, 200 mg, Day 1, IV_PO300, read-out: AUC(0-24 hrs), Geo. Mean", "result": 15600, "unit": "ng·h/mL"}, {"measurement": "AUC(0-t)", "setting": "female, human, intravenous, 200 mg, Day 1, IV_PO300, read-out: AUC(0-24 hrs), Mean", "result": 16000, "unit": "ng·h/mL"}, {"measurement": "AUC(0-t)", "setting": "female, human, intravenous, 200 mg, Day 1, IV_PO300, read-out: AUC(0-24 hrs), Median", "result": 14800, "unit": "ng·h/mL"}, {"measurement": "AUC(0-inf)", "setting": "female, human, intravenous, 200 mg, Day 1, IV_PO300, read-out: AUC(0-inf), Geo. Mean", "result": 19700, "unit": "ng·h/mL"}, {"measurement": "AUC(0-inf)", "setting": "female, human, intravenous, 200 mg, Day 1, IV_PO300, read-out: AUC(0-inf), Mean", "result": 19900, "unit": "ng·h/mL"}, {"measurement": "AUC(0-inf)", "setting": "female, human, intravenous, 200 mg, Day 1, IV_PO300, read-out: AUC(0-inf), Median", "result": 19300, "unit": "ng·h/mL"}, {"measurement": "Cmax", "setting": "female, human, intravenous, 200 mg, Day 1, IV_PO300, read-out: Cmax, Geo. Mean", "result": 1960, "unit": "ng/mL"}, {"measurement": "Cmax", "setting": "female, human, intravenous, 200 mg, Day 1, IV_PO300, read-out: Cmax, Mean", "result": 2160, "unit": "ng/mL"}, {"measurement": "Cmax", "setting": "female, human, intravenous, 200 mg, Day 1, IV_PO300, read-out: Cmax, Median", "result": 1850, "unit": "ng/mL"}, {"measurement": "Tmax", "setting": "female, human, intravenous, 200 mg, Day 1, IV_PO300, read-out: Tmax, Geo. Mean", "result": 0.869, "unit": "h"}, {"measurement": "Tmax", "setting": "female, human, intravenous, 200 mg, Day 1, IV_PO300, read-out: Tmax, Mean", "result": 0.897, "unit": "h"}, {"measurement": "Tmax", "setting": "female, human, intravenous, 200 mg, Day 1, IV_PO300, read-out: Tmax, Median", "result": 0.75, "unit": "h"}, {"measurement": "half-life", "setting": "female, human, intravenous, 200 mg, Day 1, IV_PO300, read-out: T½, Geo. Mean (converted)", "result": 11.3, "unit": "h"}, {"measurement": "half-life", "setting": "female, human, intravenous, 200 mg, Day 1, IV_PO300, read-out: T½, Mean (converted)", "result": 11.4, "unit": "h"}, {"measurement": "half-life", "setting": "female, human, intravenous, 200 mg, Day 1, IV_PO300, read-out: T½, Median (converted)", "result": 11.5, "unit": "h"}, {"measurement": "AUC(0-t)", "setting": "female, human, oral, 300 mg, Day 5, 200 mg IV, 300 mg po (n = 11), mean, read-out: AUC0-24", "result": 13200, "unit": "ng·h/mL"}, {"measurement": "Cmax", "setting": "female, human, oral, 300 mg, Day 5, 200 mg IV, 300 mg po (n = 11), mean, read-out: Cmax", "result": 1120, "unit": "ng/mL"}, {"measurement": "Tmax", "setting": "female, human, oral, 300 mg, Day 5, 200 mg IV, 300 mg po (n = 11), median, read-out: tmax", "result": 3, "unit": "h"}, {"measurement": "AUC(0-t)", "setting": "female, human, oral, 300 mg, Day 1, PO300, read-out: AUC(0-12 hrs), Geo. Mean", "result": 6150, "unit": "ng·h/mL"}, {"measurement": "AUC(0-t)", "setting": "female, human, oral, 300 mg, Day 1, PO300, read-out: AUC(0-12 hrs), Mean", "result": 6260, "unit": "ng·h/mL"}, {"measurement": "AUC(0-t)", "setting": "female, human, oral, 300 mg, Day 1, PO300, read-out: AUC(0-12 hrs), Median", "result": 6520, "unit": "ng·h/mL"}, {"measurement": "Cmax", "setting": "female, human, oral, 300 mg, Day 1, PO300, read-out: Cmax, Geo. Mean", "result": 849, "unit": "ng/mL"}, {"measurement": "Cmax", "setting": "female, human, oral, 300 mg, Day 1, PO300, read-out: Cmax, Mean", "result": 877, "unit": "ng/mL"}, {"measurement": "Cmax", "setting": "female, human, oral, 300 mg, Day 1, PO300, read-out: Cmax, Median", "result": 916, "unit": "ng/mL"}, {"measurement": "Tmax", "setting": "female, human, oral, 300 mg, Day 1, PO300, read-out: Tmax, Geo. Mean", "result": 2.96, "unit": "h"}, {"measurement": "Tmax", "setting": "female, human, oral, 300 mg, Day 1, PO300, read-out: Tmax, Mean", "result": 2.99, "unit": "h"}, {"measurement": "Tmax", "setting": "female, human, oral, 300 mg, Day 1, PO300, read-out: Tmax, Median", "result": 3, "unit": "h"}, {"measurement": "AUC(0-t)", "setting": "female, human, oral, 300 mg, Day 5, IV_PO300, read-out: AUC(0-24 hrs), Geo. Mean", "result": 9550, "unit": "ng·h/mL"}, {"measurement": "AUC(0-t)", "setting": "female, human, oral, 300 mg, Day 5, IV_PO300, read-out: AUC(0-24 hrs), Mean", "result": 13200, "unit": "ng·h/mL"}, {"measurement": "AUC(0-t)", "setting": "female, human, oral, 300 mg, Day 5, IV_PO300, read-out: AUC(0-24 hrs), Median", "result": 15800, "unit": "ng·h/mL"}, {"measurement": "Cmax", "setting": "female, human, oral, 300 mg, Day 5, IV_PO300, read-out: Cmax, Geo. Mean", "result": 808, "unit": "ng/mL"}, {"measurement": "Cmax", "setting": "female, human, oral, 300 mg, Day 5, IV_PO300, read-out: Cmax, Mean", "result": 1120, "unit": "ng/mL"}, {"measurement": "Cmax", "setting": "female, human, oral, 300 mg, Day 5, IV_PO300, read-out: Cmax, Median", "result": 1300, "unit": "ng/mL"}, {"measurement": "concentration at 5 day", "setting": "female, human, oral, 300 mg, Day 5, IV_PO300, read-out: Ctrough, Geo. Mean", "result": 214, "unit": "ng/mL"}, {"measurement": "concentration at 5 day", "setting": "female, human, oral, 300 mg, Day 5, IV_PO300, read-out: Ctrough, Mean", "result": 292, "unit": "ng/mL"}, {"measurement": "concentration at 5 day", "setting": "female, human, oral, 300 mg, Day 5, IV_PO300, read-out: Ctrough, Median", "result": 378, "unit": "ng/mL"}, {"measurement": "Tmax", "setting": "female, human, oral, 300 mg, Day 5, IV_PO300, read-out: Tmax, Geo. Mean", "result": 2.83, "unit": "h"}, {"measurement": "Tmax", "setting": "female, human, oral, 300 mg, Day 5, IV_PO300, read-out: Tmax, Mean", "result": 2.6, "unit": "h"}, {"measurement": "Tmax", "setting": "female, human, oral, 300 mg, Day 5, IV_PO300, read-out: Tmax, Median", "result": 3, "unit": "h"}, {"measurement": "half-life", "setting": "female, human, oral, 300 mg, Day 5, IV_PO300, read-out: T½, Geo. Mean (converted)", "result": 13.2, "unit": "h"}]}]}
